“Also recorded” adds a separate entry of the source.
Experiments:
HK853 [1] = molecular target: T1, HK853 (Thermotoga maritima, UniProt Q9WZV7); assay: HK853 aggregation analysis (native-PAGE); details: for Compound-induced HK853 aggregation: native-PAGE, Fig. S3
Description: HK853 Aggregation Analysis
To analyze the propensity for compounds to cause aggregation, each was mixed at six […]
(5% (v/v) DMSO final). After incubating at RT for 30 min, 8.6 µL native-PAGE sample loading buffer was added, and 15 µL was loaded onto a 7.5% polyacrylamide gel. Proteins were resolved by native-PAGE and silver staining. Compound-induced aggregation was detected by the disappearance of the dimeric HK853 band. NH125 (Tocris Bioscience) was used as a positive […]

P. aeruginosa PA14 [2] = assay: Growth of PA14 cultures with inhibitors (OD620, CFU); assay type: cell-based, Pseudomonas aeruginosa; details: for Bacteriostatic and bactericidal properties in PA14 cultures: OD620 measurements and CFU studies, even at high concentrations (500 μM); for t = 9 h, OD620 / t = 24 h, OD620: Table S3, PA14 cultures for metabolomics, 200 µM, 37 °C
Description: The overnight culture was diluted 1:100 in fresh LB media. 4 mL of this culture was then put
into a 15 mL borosilicate glass tube, to which Rilu-inhibitors in DMSO were added to a final
concentration of 200 µM and 500 µM (for the control experiments, the same amount of DMSO
was added). These cultures were grown for 24 h at 37 ° C and 200 RPM, and their OD620 values
were measured using a spectrophotometer at various time points.
200 µM and 500 µM after 16 h at 37 °C.

P. aeruginosa PA14 [3] = assay: Swarming assay; assay type: cell-based, Pseudomonas aeruginosa; details: 200 μM; for Swarming motility: after 5 days
Description: (§1) Swarming assays and quantification of rhamnolipids in swarm-plates
(§2) We followed the revised protocol developed by Trembley et al. for P. aeruginosa swarm assays.6 Plates consisted of modified M9 medium [20 mM NH4Cl; 12 mM Na2HPO4; 22 mM KH2PO4; 8.6 mM NaCl; 1 mM MgSO4; 1 mM CaCl2•2H2O; 11 mM dextrose; 0.5% casamino acids (Difco)] solidified with Bacto-agar (Difco). The M9 media without MgSO4 and CaCl2•2H2O was autoclaved, which were added after cooling the media ~60 °C. The pH was adjusted after autoclaving with HCl and NaOH (pH = 7.5). Then, a 1-in-100 dilution of filter-sterile stock containing 1 mg/mL Nile red (Sigma Aldrich) dissolved in 85% ethylene glycol and added (prepared the day of use to limit photoinactivation).7 Twenty mL of this media was poured into […]
(for the control experiments, same amount of DMSO was added). Plates were allowed to dry for 60 min, with the first 20 min under UV light to ensure plates were sterile following pH adjustment. P. aeruginosa PA14 strain was grown overnight (~16 h) in LB media at 37 °C and 200 RPM. Five µl of bacteria were spotted at the center of each plate, which were incubated at 30 °C in the dark and ~20% humidity. The plates were intermittently taken out for fluorescence scanning [scan settings: GE Typhoon Variable Mode Imager 9500, using 532-nm laser with DY-520XL (λex: 520 nm, λem: 664 nm)]. The scans were visualized and integrated density measurements of whole-plate fluorescence was measured using ImageJ software. Images of these plates were also taken with a Nikon D5200 DSLR camera, which were processed in Adobe Photoshop Lightroom 5 (Mac version) for phase-contrast.
Figure S9. Swarming motility of PA14 in the presence of Rilu-inhibitors at 200 µM after 5 days.
(§3) The top images are fluorescence scans for detecting Nile Red and the bottom images were taken

P. aeruginosa PA14 [4] = assay: LC-MS/MS analyses of metabolites in PA14 culture supernatant; assay type: cell-based, Pseudomonas aeruginosa; details: 200 μM, 9 h, 37 °C, relative to DMSO control
Description: LC-MS analyses of metabolites
The overnight culture was diluted 1:100 in fresh LB media. 4 mL of this culture was added into a 15 mL borosilicate glass tube, to which Rilu-inhibitors in DMSO were added to a final concentration of 200 µM (for the control experiments, same amount of DMSO was added).
These cultures were grown for 9 h (late exponential phase) or 24 h (stationary phase) at 37 °C and 200 RPM. The OD620 values were measured using a spectrophotometer. 1 mL of each culture was placed in a 1.7 mL Eppendorf tube, centrifuged at 5,000 g for 5 min and the supernatant was removed from the cell pellets. The supernatants were directly analyzed on an ESI-LC-MS/MS instrument for metabolites and the cell pellets (from 9 h cultures) were further used for RNA extraction in q-PCR experiments.
Injections of 2 µ L were separated on Zorbax Eclipse plus C18 column (2.1 mm x 50
MeOH:5% water with 0.1% formic acid). The metabolites were separated using an isocratic elution of 100% for 0-3 min, then a 3-17 min linear gradient to 100% B, and 17-20 min of 100% B at a constant flow rate of 0.4 ml/min. Samples were measured in positive ion mode and data was collected in triplicate. Data were analyzed using the Agilent MassHunter Quantitative Analysis suite. From the extracted ion chromatograms (EICs) of the respective metabolite signals, the peak areas were normalized to the OD620 growth values of the respective cultures. All of the peak areas of the treated samples were plotted by considering the DMSO-control sample to be 100% abundance.

P. aeruginosa PA14 [5] = assay: Biofilm assay (microtitre, crystal violet); assay type: cell-based, Pseudomonas aeruginosa; details: high concentrations, PA14, 24 h, relative to DMSO control
Description: (§4) P. aeruginosa PA14 strain was grown overnight (~16 h) in LB media at 37 °C and 200 RPM.
The overnight culture was diluted 1:100 in fresh LB media. 200 µL of this culture was then used to inoculate each well of a microtiter plate, to which Rilu-inhibitors were added in DMSO to final concentration of 200 µM or 500 µM (for the control experiments, same amount of DMSO was added). Eight wells per plate were used for each sample. These cultures were grown for 24 h at 37 °C without shaking. After growth, the planktonic cultures were carefully removed to a new microtitre plate to measure the OD620 values. The adhered cells were washed carefully three times with sterile PBS buffer, and then the cells were fixed with MeOH for 20 min. After removing the MeOH, the wells were allowed to dry for 10 min, followed by addition of 0.1% crystal violet. After 15 min of incubation, the stain was carefully removed without touching the rest of the plate. The excess stain was washed away 3 times from the wells with distilled water and the plate was allowed to dry for ~1 h. Finally, the adhered stain was redissolved in 30% acetic acid solution (for 1 h) and absorbance was measured at 595 nm. Assays were repeated in […]
Figure S8. (a) Different stages of biofilm formation. (b) Biofilm formation assessment. All values are plotted relative to a DMSO-treated control and normalized to the final cell density (OD620). […]

Vero cells = test system: Vero cells; parameters: method as in PMID 25531939; details: at <180 μM; cited from earlier work
P. aeruginosa PA14 [6] = assay: RT-qPCR of virulence and TCS genes in PA14; assay type: cell-based, Pseudomonas aeruginosa; details: PA14, 9 h, 200 and 500 μM
Description: RNA isolation, Reverse Transcriptase -qPCR experiments
as §4
The overnight culture was diluted 1:100 in fresh LB media. Four mL of this culture was then taken in a 15 mL borosilicate glass tube, to which Rilu-inhibitors in DMSO were added to a final concentration of 200 µM or 500 µM (for the control experiments, same amount of DMSO was added). These cultures were then grown for 9 h (late exponential phase) at 37 °C and 200 RPM, OD620 ~0.7. Total RNA was extracted from ~2 mL cell pellet using an RNAEasy Mini kit (Qiagen), according to the manufacturer’s instructions, including exogenous DNase treatment with Ambion Turbo-DNAse Kits. RNA integrity was confirmed by native gel electrophoresis and the quantities were measured using a nanophotometer. cDNA was generated using the DNA-free total RNA using (Applied Biosystems High Capacity cDNA Reverse Transcription Kits) random-primed reverse transcriptase reaction following the manufacturer’s protocol. The cDNA was used as template for quantitative PCR (BioRad MyiQ2 dual-color system) using the SYBR Green detection system (BioRad) on white 96-well PCR plates. Melt curves were obtained for every run, and any wells with multiple peaks were excluded from analysis. Signal was standardized to 2 housekeeping genes, recA, rpoD using the ∆∆C method equation:8 Relative […]
expression = 2(CT standard −C T sample), where CT (cycle time) was determined automatically by the Real Time iQ5 PCR software (BioRad). Primers (Integrated DNA Technologies) for RT-qPCR were designed using NCBI Primer-Blast software. Criteria for primer design were a […]
; primer size = 18 –22 bp; product size = 80–130 bp; product Tm
= 60– 90 °C. Samples were assayed in triplicate and statistical analyses was done with one-way ANOVA (Origin 9.1 software).
Table S5. List of primer pairs used in qPCR
Target gene Forward Reverse […]

HK853 [7] = molecular target: T1, HK853; assay: Inhibition of HK853 activity (BODIPY-ATPγS competition, HK autophosphorylation); assay type: biochemical; details: for IC50 values for HK853 inhibitory activity: Fig. 1b and text, HK autophosphorylation; for IC50 values (µM) (95% confidence interval), n = 2: Table S1, HK853 inhibition
Description: Inhibition of HK853 Activity
Triton X-100 was premixed with reaction buffer to yield 0.1% (v/v) in final
25-µL reactions. In reaction buffer, 1 µM HK853 was preincubated with test compounds (final
1 µL BODIPY -ATPγS was added to bring
competitors and 5% DMSO. Samples were mixed and incubated in the dark at RT for 1 h before
quenching with 8.6 µL 4× SDS-PAGE sample loading buffer and loading 15 µL on a 10%
stacking gel. After SDS-PAGE, in-gel fluorescence detection elucidated HK853 activity, and
coomassie staining of the gels ensured even protein loading. Integrated density values of the
fluorescent gel bands were normalized as “% Activity” with respect to a control that contained
no inhibitor. Data were plotted in GraphPad Prism with relation to the log of molar inhibitor to
(control FP competition and activity assays), data were fit to a four-parameter logistic equation,
where y is the response, Bottom and Top are plateaus in the units of the y-axis, x is the log of the
molar concentration of inhibitor, HillSlope is the slope of the curve, and IC50 is the concentration
As a result, IC50 values were estimated by constraining the bottom of the curve to

P. aeruginosa PA14 [8] = assay: Rapid attachment assay; assay type: cell-based, Pseudomonas aeruginosa; details: PA14, 60 min adhesion, relative to DMSO control
Description: as §4
The overnight cultures were washed and diluted in LB medium to an OD620 value of 1.0. 100 µL of this suspension was used to inoculate each well of a microtiter plate in presence of Rilu-inhibitors in DMSO at 200 µM or 500 µM (for the control experiments, same amount of DMSO was added). Eight wells per plate were used for each sample. Cells were allowed to adhere for 60 min at 37 °C and 200 RPM. After the planktonic cells were removed, staining with crystal violet was carried out, as described in the biofilm assay procedure. Assays were repeated in triplicate.

P. aeruginosa PA14 [9] = assay: Quantification of rhamnolipids in swarm-plates (Nile red, ImageJ); assay type: cell-based, Pseudomonas aeruginosa; details: 200 μM, Nile red fluorescence, quantified with ImageJ
Description: as §1, §2
(for the control experiments, same amount of DMSO was added). Plates were allowed to dry for 60 min, with the first 20 min under UV light to ensure plates were sterile following pH adjustment. […] The plates were intermittently taken out for fluorescence scanning [scan settings: GE Typhoon Variable Mode Imager 9500, using 532-nm laser with DY-520XL (λex: 520 nm, λem: 664 nm)]. The scans were visualized and integrated density measurements of whole-plate fluorescence was measured using ImageJ software. […]
as §3

T1 sequence (Q9WZV7 entry or part of it): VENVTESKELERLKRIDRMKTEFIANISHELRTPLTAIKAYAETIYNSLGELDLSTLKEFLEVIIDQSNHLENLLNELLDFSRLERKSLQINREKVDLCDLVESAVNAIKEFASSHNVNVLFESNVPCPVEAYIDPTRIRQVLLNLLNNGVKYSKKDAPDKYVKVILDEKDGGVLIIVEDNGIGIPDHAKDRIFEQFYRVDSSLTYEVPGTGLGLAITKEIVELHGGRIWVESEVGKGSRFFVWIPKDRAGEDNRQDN

Q: For `CCCCCCCCCCCCCCCCn1cc[n+](Cc2ccccc2)c1C.[I-]` [NH-125, reference compound], which “Concentration causing disappearance of the protein dimer band (protein aggregation)” value (HK853 [1]; native-PAGE of HK853, positive aggregation control) is on record?
A: Its value is no less than 10 µM.

Q: Which “Bacteriostatic and bactericidal properties in PA14 cultures” value (P. aeruginosa PA14 [2]) does the source give for `Nc1nc2ccc(OC(F)(F)F)cc2s1` [Rilu-1, riluzole, reference compound] here?
A: Its value is “None of these compounds substantially slowed growth or killed the organism”.

Q: What about the Swarming motility (P. aeruginosa PA14 [3]) of the same molecule?
A: Its Swarming motility is “moderate difference in swarming”.

Q: And the “Compound-induced HK853 aggregation” value (HK853 [1])?
A: Its value is “non-aggregators”.

Q: Which “Bacteriostatic and bactericidal properties in PA14 cultures” value (P. aeruginosa PA14 [2]) does the source give for `Nc1nc2ccc(Oc3ccc4nc(N)sc4c3)cc2s1` [Rilu-2] here?
A: Its value is “None of these compounds substantially slowed growth or killed the organism”.

Q: What about the “t = 9 h, OD620” value (P. aeruginosa PA14 [2]) of the same molecule?
A: The value was 0.851.

Q: And the “t = 24 h, OD620” value (P. aeruginosa PA14 [2])?
A: The value was 1.60.

Q: And the “Reduction of PCN” value (P. aeruginosa PA14 [4])?
A: Its value is roughly 85%.

Q: What about the “Reduction of PYO” value (P. aeruginosa PA14 [4]) of the same molecule?
A: The value was 70%.

Q: What about the “Reduction of biofilm mass” value (P. aeruginosa PA14 [5]) of the same molecule?
A: The value was 25%.

Q: And the “Compound-induced HK853 aggregation” value (HK853 [1])?
A: The value was “non-aggregators”.

Q: What about the “Cytotoxicity to Vero cells” value (Vero cells) of the same molecule?
A: The value was “not cytotoxic”.

Q: Which “Bacteriostatic and bactericidal properties in PA14 cultures” value (P. aeruginosa PA14 [2]) does the source give for `Nc1nc2ccc([N+](=O)[O-])cc2s1` [Rilu-4] here?
A: Its value is “None of these compounds substantially slowed growth or killed the organism”.

Q: What about the “t = 9 h, OD620” value (P. aeruginosa PA14 [2]) of the same molecule?
A: The value was 0.842.

Q: What about the “t = 24 h, OD620” value (P. aeruginosa PA14 [2]) of the same molecule?
A: The value was 1.65.

Q: And the Swarming motility (P. aeruginosa PA14 [3])?
A: Its Swarming motility is “moderate difference in swarming”.

Q: And the “Effect on expression of virulence-associated genes (pqsR, fleQ and pilA)” value (shortened to “Effect on expression”) (P. aeruginosa PA14 [6])?
A: Its value is “substantially downregulated”.

Q: What about the “Compound-induced HK853 aggregation” value (HK853 [1]) of the same molecule?
A: The value was “non-aggregators”.

Q: For `Cc1nc2ccc(N)cc2s1` [Rilu-7], which “Effect on expression” value (P. aeruginosa PA14 [6]) is on record?
A: Its value is “does not significantly affect”.

Q: For `Nc1nc2c(Cl)cc(Cl)cc2s1` [Rilu-10], which “IC50 values for HK853 inhibitory activity” value (HK853 [7]) is on record?
A: Its value is “No inhibition; also recorded: inactive”.

Q: What about the “IC50 values (µM) (95% confidence interval), n = 2” value (HK853 [7]) of the same molecule?
A: Its value is “No Inhibition”.

Q: For `Nc1nc2cc(Br)c(Br)cc2s1` [Rilu-11], which “IC50 values for HK853 inhibitory activity” value (HK853 [7]) is on record?
A: Its value is “No inhibition; also recorded: inactive”.

Q: What about the “IC50 values (µM) (95% confidence interval), n = 2” value (HK853 [7]) of the same molecule?
A: Its value is “No Inhibition”.

Q: Which “Bacteriostatic and bactericidal properties in PA14 cultures” value (P. aeruginosa PA14 [2]) does the source give for `Nc1nc2cc3sc(N)nc3cc2s1` [Rilu-12] here?
A: Its value is “None of these compounds substantially slowed growth or killed the organism”.

Q: What about the “t = 9 h, OD620” value (P. aeruginosa PA14 [2]) of the same molecule?
A: Its value is 0.883.

Q: What about the “t = 24 h, OD620” value (P. aeruginosa PA14 [2]) of the same molecule?
A: Its value is 1.65.

Q: What about the “Amount of PCA produced” value (P. aeruginosa PA14 [4]) of the same molecule?
A: Its value is roughly 8%.

Q: And the “Reduction in surface attachment” value (P. aeruginosa PA14 [8])?
A: The value was 70%.

Q: What about the “Swarming motility, tendril formation” value (P. aeruginosa PA14 [3]; after 40 h) of the same molecule?
A: Its value is “most prominently”.

Q: What about the Swarming motility (P. aeruginosa PA14 [3]) of the same molecule?
A: Its Swarming motility is “major impairment in motility”.

Q: What about the “Reduction of RL production on swarm agar plates” value (P. aeruginosa PA14 [9]) of the same molecule?
A: The value was 70%.

Q: And the “Effect on expression” value (P. aeruginosa PA14 [6])?
A: Its value is “substantially downregulated”.

Q: And the “Compound-induced HK853 aggregation” value (HK853 [1])?
A: Its value is “non-aggregators”.

— article PMC6237130, “Disarming the virulence arsenal of Pseudomonas aeruginosa by blocking two-component system signaling” (Chemical Science, 2018)
